In brackets after ≈: the same amount, converted by molar mass.
Legend:
[1] = Antioxidant activity assessed as inhibition of peroxynitrite mediated L-tyrosine nitration in sodium phosphate buffer at pH 7.5 incubated for 7 mins by RP-HPLC analysis; assay type: functional
[2] = Antioxidant activity assessed as reduction in peroxynitrite mediated L-tyrosine nitration by measuring remaining activity relative to control; assay type: functional; parameters: concentration or dose not given beside the values
[3] = test system: OVCAR-3; assay: Antiproliferative activity against human OVCAR-3 cells; assay type: functional, cell-based
[4] = Antiproliferative activity against human OVCAR-10 cells; assay type: functional, cell-based
[5] = test system: ES-2; assay: Antiproliferative activity against human ES2 cells; assay type: functional, cell-based
[6] = Antiproliferative activity against human HEY A8 cells; assay type: functional, cell-based
[7] = test system: HEK-293T; assay: Antiproliferative activity against HEK293T; assay type: functional, cell-based; conditions: Homo sapiens
[8] = test system: Candida albicans; assay: Antifungal activity against azole-resistant Candida albicans clinical isolate CaR assessed as fungal growth inhibition incubated for 24 hrs by CLSI protocol based broth microdilution method; assay type: functional
[9] = test system: Candida albicans; assay: Antifungal activity against azole-resistant Candida albicans clinical isolate 17 assessed as fungal growth inhibition incubated for 24 hrs by CLSI protocol based broth microdilution method; assay type: functional
[10] = test system: Candida albicans; assay: Antifungal activity against azole-resistant Candida albicans clinical isolate 632 assessed as fungal growth inhibition incubated for 24 hrs by CLSI protocol based broth microdilution method; assay type: functional
[11] = test system: Candida albicans; assay: Antifungal activity against azole-resistant Candida albicans clinical isolate 901 assessed as fungal growth inhibition incubated for 24 hrs by CLSI protocol based broth microdilution method; assay type: functional
[12] = test system: Candida albicans; assay: Antifungal activity against azole-resistant Candida albicans clinical isolate 904 assessed as fungal growth inhibition incubated for 24 hrs by CLSI protocol based broth microdilution method; assay type: functional
[13] = test system: Candida tropicalis; assay: Antifungal activity against Candida tropicalis CGMCC 2.3739; assay type: functional
[14] = test system: Human alphaherpesvirus 1; assay: Antiviral activity against HSV-1 infected in African green monkey Vero cells assessed as reduction in virus-induced cytopathic effect incubated for 3 days by MTT assay; assay type: functional, organism-based; conditions: Human alphaherpesvirus 1, Vero, 72 h
[15] = test system: Human alphaherpesvirus 2; assay: Antiviral activity against HSV-2 infected in African green monkey Vero cells assessed as reduction in virus-induced cytopathic effect incubated for 3 days by MTT assay; assay type: functional, organism-based; conditions: Human alphaherpesvirus 2, Vero, 72 h
[16] = test system: Human alphaherpesvirus 3; assay: Antiviral activity against VZV infected in African green monkey Vero cells assessed as reduction in virus-induced cytopathic effect incubated for 3 days by MTT assay; assay type: functional, organism-based; conditions: Human alphaherpesvirus 3, Vero, 72 h
[17] = test system: Human betaherpesvirus 5; assay: Antiviral activity against […] infected in African green monkey Vero cells assessed as reduction in virus-induced cytopathic effect incubated for 3 days by MTT assay; assay type: functional, organism-based; conditions: Human betaherpesvirus 5, Vero, 72 h
[18] = test system: MHCC97H; assay: Antiproliferative activity against human MHCC97H cells assessed as reduction in cell viability incubated for 48 hrs by MTT assay; assay type: functional, cell-based
[19] = Inhibition of TrxR (unknown origin) expressed in MHCC97H cells incubated for 24 hrs by colorimetric assay; assay type: cell-based, Homo sapiens

For `Cn1ccnc1S` [METHIMAZOLE], which IC50 [1] is on record?
Its IC50 is 23.9 µM.

What about the Activity [2] of the same compound?
The Activity was 32.5%.

What does the source list for `O=C1N[C@H]2[C@H](CS[C@H]2CCCCC(=O)[Se]Cc2ccccc2)N1`?
IC50 [3]: 36.9 µM; IC50 [4]: 47.2 µM; IC50 [5]: 16.2 µM; IC50 [6]: 17.3 µM; IC50 [7]: 6.57 µM

With `OC(Cn1cncn1)(Cn1cncn1)c1ccc(F)cc1F` [FLUCONAZOLE] as the compound, how does the MIC [8] read?
The MIC was over 128 µg/mL.

What about the MIC [9] of the same compound?
Its MIC is over 128 µg/mL.

What about the MIC [10] of the same compound?
Its MIC is over 128 µg/mL.

And the MIC [11]?
Its MIC is over 128 µg/mL.

What about the MIC [12] of the same compound?
The MIC was over 128 µg/mL.

What about the MIC [13] of the same compound?
Its MIC is 2 µg/mL (≈ 6.53 µM).

Which EC50 [14] does the source give for `CNC1NC(N)=Nc2c1ncn2C[Se]C(CO)CO` (centres undefined) here?
The EC50 was over 100 µM.

And the EC50 [15]?
The EC50 was over 100 µM.

What about the EC50 [16] of the same compound?
Its EC50 is over 100 µM.

And the EC50 [17]?
The EC50 was 32.1 µM.

Which EC50 [14] does the source give for `NC1=Nc2c(ncn2C[Se]CCO)C(N)N1` (centres undefined) here?
The EC50 was 15.4 µM.

And the EC50 [15]?
The EC50 was 32.2 µM.

And the EC50 [16]?
The EC50 was over 100 µM.

And the EC50 [17]?
Its EC50 is over 100 µM.

For `N#Cc1cccc(-c2ccc(=O)n(Cc3cccc(-c4ncc([Se]CCN5CCCC5)cn4)c3)n2)c1`, which IC50 [18] is on record?
The IC50 was 0.063 µM.

What about the IC50 [19] of the same compound?
The IC50 was 0.8 µM.

With `C=C1N(C)C=CN1CCCCCn1ccn(C)c1=[Se]` as the compound, how does the Activity [2] read?
The Activity was 45%.

With `CN1CCC(COc2cnc(-c3cccc(Cn4nc(-c5cccc(C#N)c5)ccc4=O)c3)nc2)CC1` [TEPOTINIB] as the compound, how does the IC50 [18] read?
The IC50 was 0.016 µM.

And the IC50 [19]?
Its IC50 is over 10 µM.

What does the source list for `C[Se]C(=O)CCCC[C@@H]1SC[C@@H]2NC(=O)N[C@@H]21`?
IC50 [3]: 22.3 µM; IC50 [4]: 24.9 µM; IC50 [5]: 9.84 µM; IC50 [6]: 20.2 µM; IC50 [7]: 31.5 µM

What does the source list for `O=c1[nH]cc(F)c(=O)[nH]1` [FLUOROURACIL]?
IC50 [3]: 18.9 µM; IC50 [4]: 26.4 µM; IC50 [5]: 25.9 µM; IC50 [6]: 48.4 µM; IC50 [7]: 56.2 µM

Which Activity [2] does the source give for `CN1C=CN(CCn2ccn(C)c2=[Se])C1` here?
The Activity was 68.4%.

Which IC50 [1] does the source give for `Cc1cc(=O)[nH]c(=S)[nH]1` [METHYLTHIOURACIL] here?
The IC50 was 66.7 µM.

For `CCCc1cc(=O)[nH]c(=S)[nH]1` [PROPYLTHIOURACIL], which IC50 [1] is on record?
The IC50 was 95 µM.

Which IC50 [3] does the source give for `O=C(O)CCCC[C@@H]1SC[C@@H]2NC(=O)N[C@@H]21` [BIOTIN] here?
Its IC50 is over 100 µM.

What about the IC50 [4] of the same compound?
The IC50 was over 100 µM.

What about the IC50 [5] of the same compound?
Its IC50 is over 100 µM.

What about the IC50 [6] of the same compound?
Its IC50 is over 100 µM.

And the IC50 [7]?
Its IC50 is over 100 µM.

For `N#Cc1cccc(-c2ccc(=O)n(Cc3cccc(-c4ncc([Se]CCCN5CCOCC5)cn4)c3)n2)c1`, which IC50 [18] is on record?
The IC50 was 0.029 µM.

And the IC50 [19]?
Its IC50 is 0.117 µM.

Which IC50 [18] does the source give for `CN(C)CC[Se]c1cnc(-c2cccc(Cn3nc(-c4cccc(C#N)c4)ccc3=O)c2)nc1` here?
Its IC50 is 0.027 µM.

What about the IC50 [19] of the same compound?
The IC50 was 0.421 µM.

What does the source list for `N#C[Se]CCCOC(=O)CCCC[C@@H]1SC[C@@H]2NC(=O)N[C@@H]21`?
IC50 [3]: > 100 µM; IC50 [4]: > 100 µM; IC50 [5]: 91.6 µM; IC50 [6]: 22.3 µM; IC50 [7]: > 100 µM

With `C=C1N(C)C=CN1CCCn1ccn(C)c1=[Se]` as the compound, how does the Activity [2] read?
Its Activity is 29%.

For `NC1=Nc2c(ncn2C[Se]C(CO)CO)C(NC2CC2)N1` (centres undefined), which EC50 [14] is on record?
Its EC50 is over 100 µM.

What about the EC50 [15] of the same compound?
The EC50 was over 100 µM.

And the EC50 [16]?
Its EC50 is over 100 µM.

What about the EC50 [17] of the same compound?
Its EC50 is 41.1 µM.

With `C=Cn1ccn(C)c1=[Se]` as the compound, how does the Activity [2] read?
The Activity was 71%.

With `COc1cccc(Cn2ccn(Cc3cccc(OC)c3)c2=[Se])c1` as the compound, how does the IC50 [1] read?
Its IC50 is 42.2 µM.

And the Activity [2]?
Its Activity is 82%.

For `C=C1N(C)C=CN1CCCCn1ccn(C)c1=[Se]`, which Activity [2] is on record?
The Activity was 56%.

Which IC50 [1] does the source give for `Cn1cc[nH]c1=[Se]` here?
The IC50 was 49.1 µM.

What about the Activity [2] of the same compound?
The Activity was 66%.

For `NC1=Nc2c(ncn2C[Se]C(CO)CO)C(N)N1` (centres undefined), which EC50 [14] is on record?
The EC50 was over 100 µM.

And the EC50 [15]?
Its EC50 is over 100 µM.

What about the EC50 [16] of the same compound?
The EC50 was over 100 µM.

What about the EC50 [17] of the same compound?
Its EC50 is 34.3 µM.

With `N#Cc1cccc(-c2ccc(=O)n(Cc3cccc(-c4ncc([Se]CCCN5CCCCC5)cn4)c3)n2)c1` as the compound, how does the IC50 [18] read?
The IC50 was 0.038 µM.

What about the IC50 [19] of the same compound?
The IC50 was 0.654 µM.

With `CN(C)CCC[Se]c1cnc(-c2cccc(Cn3nc(-c4cccc(C#N)c4)ccc3=O)c2)nc1` as the compound, how does the IC50 [18] read?
The IC50 was 0.01 µM.

For `Cn1ccn(C)c1=[Se]`, which IC50 [1] is on record?
Its IC50 is 12.2 µM.

And the Activity [2]?
The Activity was 66.5%.

Which results are given for `CC[Se]C(=O)CCCC[C@@H]1SC[C@@H]2NC(=O)N[C@@H]21`?
IC50 [3]: 34.2 µM; IC50 [4]: 40.4 µM; IC50 [5]: 14.5 µM; IC50 [6]: 12.8 µM; IC50 [7]: 38.8 µM

For `N#C[Se]CCOC(=O)CCCC[C@@H]1SC[C@@H]2NC(=O)N[C@@H]21`, which IC50 [3] is on record?
Its IC50 is 11.8 µM.

And the IC50 [4]?
Its IC50 is 18.6 µM.

What about the IC50 [5] of the same compound?
The IC50 was 9.85 µM.

What about the IC50 [6] of the same compound?
The IC50 was 14.1 µM.

What about the IC50 [7] of the same compound?
The IC50 was 77.2 µM.

Which IC50 [1] does the source give for `COc1cccc(Cn2ccn(C)c2=[Se])c1` here?
The IC50 was 7.8 µM.

Source: ChEMBL document CHEMBL5512666, “Selenization of Small Molecule Drugs: A New Player on the Board” (J Med Chem, 2024)
